Test results reported in the NIST ThermoML archive (doi:10.1021/je300148f).

Settings: Liquid, isochoric method

FC(F)(F)C(F)(F)C(F)(F)F [octafluoropropane]
Settings | mass density [kg/m3]
203.51 K, 5337.7 kPa | 1748.65
203.54 K, 25066 kPa | 1795.66
207.93 K, 30528 kPa | 1795.05
207.94 K, 10279 kPa | 1747.98
212.07 K, 14905 kPa | 1747.39
212.65 K, 36376 kPa | 1794.41
216.5 K, 40978 kPa | 1793.89
216.54 K, 1000.8 kPa | 1689.31
216.88 K, 20281 kPa | 1746.74
217.62 K, 2018.3 kPa | 1689.13
218.87 K, 3201.2 kPa | 1688.94
220.1 K, 4356.8 kPa | 1688.75
221 K, 5191.7 kPa | 1688.62
221.04 K, 25052 kPa | 1746.18
225.96 K, 30368 kPa | 1745.54
226.4 K, 10304 kPa | 1687.87
230.5 K, 35314 kPa | 1744.96
231.73 K, 15327 kPa | 1687.19
234.92 K, 39898 kPa | 1744.41
235.64 K, 915.8 kPa | 1615.88
236.89 K, 20178 kPa | 1686.54
237.72 K, 1980.7 kPa | 1615.62
239.2 K, 3133.7 kPa | 1615.41
240.32 K, 3992.9 kPa | 1615.26
241.96 K, 25015 kPa | 1685.92
241.97 K, 5288.2 kPa | 1615.05
247.06 K, 29611 kPa | 1685.32
248.4 K, 10248 kPa | 1614.25
253.05 K, 1037.7 kPa | 1548.82
253.35 K, 35422 kPa | 1684.57
254.58 K, 2042.7 kPa | 1548.62
254.84 K, 15219 kPa | 1613.5
256.2 K, 3092.6 kPa | 1548.41
257.67 K, 4032.3 kPa | 1548.23
257.99 K, 39644 kPa | 1684.03
259.38 K, 5163.9 kPa | 1548.03
260.6 K, 5918.9 kPa | 1547.89
261.38 K, 20247 kPa | 1612.75
262.2 K, 6953.3 kPa | 1547.71
264.92 K, 1305.5 kPa | 1498.9
266.69 K, 2167.6 kPa | 1498.5
267.42 K, 10407 kPa | 1547.12
267.61 K, 24742 kPa | 1612.07
268.4 K, 3123.5 kPa | 1498.5
270.01 K, 4060.3 kPa | 1498.31
272.1 K, 5218.8 kPa | 1498.08
273.85 K, 29781 kPa | 1611.39
274.19 K, 14632 kPa | 1546.4
278.85 K, 1048.7 kPa | 1431.66
280.31 K, 34598 kPa | 1610.69
280.62 K, 9990.2 kPa | 1497.18
280.96 K, 2016.5 kPa | 1431.43
282.61 K, 20193 kPa | 1545.52
283.12 K, 3037.6 kPa | 1431.2
285.2 K, 4021.6 kPa | 1430.98
287.19 K, 39685 kPa | 1609.96
287.23 K, 4975.5 kPa | 1430.78
289.39 K, 15154 kPa | 1496.29
290.43 K, 25199 kPa | 1544.72
294.19 K, 1027.2 kPa | 1348.77
296.89 K, 2032 kPa | 1348.25
298.14 K, 10127 kPa | 1429.72
298.14 K, 10227 kPa | 1432.13
298.15 K, 20139 kPa | 1495.43
298.17 K, 30128 kPa | 1543.94
299.56 K, 3026.3 kPa | 1348.25
302.24 K, 4025.2 kPa | 1348
305.19 K, 5144.5 kPa | 1347.73
305.57 K, 34457 kPa | 1543.21
306.47 K, 24759 kPa | 1494.63
308.23 K, 15310 kPa | 1431.18
313.2 K, 39261 kPa | 1542.45
316.93 K, 30165 kPa | 1493.65
318.2 K, 1978.9 kPa | 1206.47
318.2 K, 2006.9 kPa | 1206.47
318.2 K, 10061 kPa | 1346.6
318.2 K, 19323 kPa | 1427.89
318.2 K, 20116 kPa | 1430.27
318.21 K, 9971.7 kPa | 1346.6
322.1 K, 2987.3 kPa | 1206.16
325.72 K, 35057 kPa | 1492.81
326.06 K, 3974.1 kPa | 1205.86
328.08 K, 24771 kPa | 1429.38
329.83 K, 4928.6 kPa | 1205.58
330.81 K, 14738 kPa | 1345.54
332.72 K, 39008 kPa | 1492.14
339.5 K, 7422.8 kPa | 1204.86
341.2 K, 30200 kPa | 1425.83
344.83 K, 20114 kPa | 1344.37
353.16 K, 23269 kPa | 1343.69
353.16 K, 35743 kPa | 1424.77
353.17 K, 10953 kPa | 1203.86

CCC [propane]
Settings | mass density [kg/m3]
207.35 K, 1466.9 kPa | 609.37
208.31 K, 2745.8 kPa | 609.32
209.06 K, 3635.6 kPa | 609.28
209.75 K, 4364.7 kPa | 609.25
215.17 K, 10724 kPa | 608.98
222.43 K, 1045.6 kPa | 592.03
222.75 K, 19646 kPa | 608.63
223.37 K, 2016.7 kPa | 591.98
224.52 K, 3087.1 kPa | 591.93
225.47 K, 4153.8 kPa | 591.89
226.91 K, 5632.5 kPa | 591.82
231.06 K, 30008 kPa | 608.23
231.07 K, 10051 kPa | 591.62
239.51 K, 39217 kPa | 607.87
240.49 K, 1194 kPa | 571.45
240.67 K, 19671 kPa | 591.21
240.92 K, 1528.8 kPa | 571.44
242.87 K, 3265.5 kPa | 571.39
244.55 K, 4758.9 kPa | 571.35
245.44 K, 5554 kPa | 571.33
250.1 K, 9711.4 kPa | 571.2
250.12 K, 29984 kPa | 590.79
251.11 K, 51133 kPa | 607.38
259.96 K, 1060.8 kPa | 547.54
261.06 K, 19770 kPa | 571.13
261.18 K, 40016 kPa | 590.35
261.19 K, 1975 kPa | 547.51
262.52 K, 2951.9 kPa | 547.48
262.52 K, 3059.7 kPa | 547.47
263.78 K, 4004 kPa | 547.44
265.28 K, 5120.2 kPa | 547.4
266.44 K, 5840.1 kPa | 547.37
267.87 K, 6954.7 kPa | 547.34
270.11 K, 49092 kPa | 589.98
270.22 K, 1044.7 kPa | 533.77
271.68 K, 2041.5 kPa | 533.71
272.12 K, 10829 kPa | 547.66
272.12 K, 30057 kPa | 570.94
272.13 K, 10235 kPa | 547.22
273.11 K, 3025.3 kPa | 533.66
274.51 K, 3979.1 kPa | 533.61
276.2 K, 5186.1 kPa | 533.54
283.08 K, 995.2 kPa | 515.52
283.43 K, 38987 kPa | 570.26
283.64 K, 10260 kPa | 533.26
284.77 K, 2002.1 kPa | 515.46
284.98 K, 19876 kPa | 546.88
286.56 K, 3090.5 kPa | 515.39
288.23 K, 4086.1 kPa | 515.33
289.9 K, 5086.2 kPa | 515.27
295.92 K, 49573 kPa | 569.78
297.68 K, 1075 kPa | 493.21
298.14 K, 10031 kPa | 514.99
298.15 K, 10038 kPa | 514.99
298.15 K, 19981 kPa | 532.71
298.15 K, 30027 kPa | 546.51
298.15 K, 30100 kPa | 546.7
298.18 K, 19921 kPa | 532.75
298.19 K, 20084 kPa | 532.74
299.62 K, 2037.9 kPa | 493.14
301.57 K, 3036.9 kPa | 493.08
303.56 K, 4053.8 kPa | 493.01
305.53 K, 5060.2 kPa | 492.95
311.44 K, 39238 kPa | 545.97
313.68 K, 30193 kPa | 532.17
315.23 K, 2005.2 kPa | 466.11
315.23 K, 9905.5 kPa | 492.64
315.23 K, 10017 kPa | 492.63
315.23 K, 19842 kPa | 514.41
317.42 K, 2930.2 kPa | 466.04
319.89 K, 3981.7 kPa | 465.97
322.25 K, 4976.5 kPa | 465.9
332.01 K, 29682 kPa | 513.86
333.97 K, 19538 kPa | 492.04
334.14 K, 9861.6 kPa | 465.55
344.57 K, 49972 kPa | 531.11
353.14 K, 29253 kPa | 491.45
353.14 K, 42004 kPa | 513.17
353.15 K, 17921 kPa | 464.99
